From patent US20210308028A1, “Compositions and Methods for Maintaining and Protecting Tissue Integrity and Barrier Function” (Colgate-Palmolive Company, priority 2020, published 2021)
Structures can show the parent of a compound that is named as a salt.

Key:
[1] = system: intestinal mucosal barrier; conditions: reported; cited from earlier work
[2] = system: Mattek Epigingival tissues; test: TER of Epigingival tissues upon sodium lauryl sulfate (SLS) challenge; type: cell-based, human
Source text: Cell junctions are intercellular pathways that selectively permit the movement of molecules through cellular layers. In terms of biological function, cell junctions form a barrier between apical and basolateral cell surfaces and are crucial in the development and function of epithelial tissues. The ion permeability of cell junctions can be measured through a voltmeter in the form of Trans Epithelial Electric Resistance (TER). Measurements are quickly determined through an electrode with little to no disturbance to the cell layers. The resistance correlates to the integrity of the tissue, and confluent tissue layers with intact cell junctions lead to higher TER readings.
Epigingival tissues were purchased from Mattek Corporation for use in the experiment. These multilayered epithelial cells imitate human gingival tissue in-vivo and can withstand high concentrations of toothpaste solutions. Once the tissues arrived in the laboratory, individual tissues were reconstituted in 1 mL of Mattek provided GIN-100 maintenance medium overnight at 37° C. and 5% CO2 before testing of samples. The medium was changed every day after treatment.
TER measurement experiment was performed comparing the neat active ingredients in solution and their effects on the physical integrity of Mattek Epigingival tissues. […]

[3] = system: gingival keratinocyte barrier; conditions: previously reported; cited from earlier work
[4] = system: in vitro oral mucosa model; conditions: Rybakovsky 2017; cited from earlier work
[5] = system: intestinal epithelial barrier; conditions: Sarkar 2019; in vivo (mouse) and in vitro models; cited from earlier work
[6] = system: P. gingivalis collagenase; test: Proteolytic assay: collagen DQ degradation by P. gingivalis culture supernatant; type: biochemical, Porphyromonas gingivalis; conditions: Example 6, FIGS. 35, 38, 41; over 5 hours
Experimental: To determine the effects of formulations tested on the proteinase activity of P. gingivalis, a 48-h culture was centrifuged at 10 000×g for 10 min. […] The fluorescence corresponding to collagen degradation was monitored using a Synergy 2 microplate reader, with the excitation and emission wavelengths set at 495 nm and 525 nm, respectively. Test compounds or the fluorescent substrate alone were used as controls. For the proteolytic assay, the following ratio was used: 40% P. gingivalis supernatant+40% test compounds+20% DQ collagen. […]
To determine the effects of the Dual Zinc plus Arginine aqueous solution and dentifrice on the proteinase activity of P. gingivalis, a 48-h culture was centrifuged at 10 000×g for 10 min. Assay mixtures containing equal volumes of P. gingivalis culture supernatant, the fluorescent substrate collagen DQ™ (100 μg/mL; Molecular Probes, Eugene, Oreg., USA), and the Dual Zinc […] The fluorescence corresponding to collagen degradation was monitored using a Synergy 2 microplate reader, with the excitation and emission wavelengths set at 495 nm and 525 nm, respectively. Test compounds or the fluorescent substrate alone were used as controls. Leupeptin (1 μM) was used as a positive inhibitory control.

[7] = system: B11 gingival keratinocytes treated with TNF-α; test: TER with TNF-α challenge; type: cell-based, human; conditions: TNF-α 100 ng/ml
Experimental: Tight junction integrity was assessed by determining the trans-epithelial electrical resistance (TER). B11 gingival keratinocytes were seeded onto Costar™ Transwell™ clear polyester membrane inserts (6.5-mm diameter; 0.4-μm pore size; Corning Co., Cambridge, Mass., USA) at 3×10^5 cells per insert. The basolateral and apical compartments were filled with 0.6 mL and 0.1 mL of complete K-SFM, respectively. Following a 72-h incubation, the conditioned medium was replaced with antibiotic-free K-SFM, and the cells were incubated for a further 16 h. The TER values were measured using an Ohm/voltmeter (EVOM2; World Precision Instruments, Sarasota, Fla., USA) at 0, 4, 8, 24, 48, and 72 h. Resistance values were calculated in Ohms (Ω)/cm 2 by multiplying the resistance values by the filter surface area. Results were expressed as percentage of the basal control values measured at time 0 h (100% values) for each condition.
(§1) Assays exposed cells to either TNFα only or TNFα+test composition. TNFα is known to cause tissue damage. A stock solution of recombinant TNF-α is prepared in sterile distilled water at 100 μg/ml. Thereafter, dilutions are made in keratinocyte culture medium. First dilution is 1/1000 to obtain 100 ng/ml. TNF-α and the test compounds are added simultaneously.
Keratinocyte barrier integrity was determined by monitoring transepithelial electrical resistance (TER). Briefly, keratinocytes (3×10^5 cells per insert; 0.1 ml) were seeded in the apical compartment of Costar™ Transwell™ clear polyester membrane inserts (6.5 mm in diameter, 0.4 μm pore size; Corning Co., Cambridge, Mass., USA), while the basolateral compartment was filled with 0.6 ml of culture medium. After 72-h of incubation, the conditioned culture medium was replaced with fresh antibiotic-free K-SFM, and the cells were further incubated for 16 h prior treating the cells. Recombinant human TNF-α (100 ng/ml; AnaSpec, Fremont, USA) and the formulations (final dilutions of 1/500, 1/1000, and 1/2000 (v/v for the aqueous solution; w/v for the dentifrice) under investigation were added to the apical compartment. The TER values were monitored using an ohm/voltmeter (EVOM^2; World Precision Instruments, Sarasota, Fla., USA) after 0, 6, 24, and 48 h of incubation. The TER values in Ohms (Ω)/cm^2 were determined by multiplying the resistance values by the surface area of the membrane filter. Results are expressed as the percentage of the basal control value measured at time 0-h (100% value).

[8] = system: B11 gingival keratinocytes treated with TNF-α; test: FITC-dextran paracellular transport with TNF-α challenge; type: cell-based, human; conditions: TNF-α 100 ng/ml, 48-h exposure
Experimental: The ability of test composition samples to enhance epithelial barrier integrity was assessed by monitoring the paracellular transport of FITC-conjugated 4.4-kDa dextran (FD-4; Sigma-Aldrich Canada Ltd.) across the keratinocyte layer. Briefly, B11 cells were cultured on Transwell filters, and FD-4 ([…] in culture medium) was added in the apical compartment in the presence of the test composition under investigation. Fluorescence in the basolateral compartment was measured at 0, 4, 8, 24, and 48 h using a Synergy 2 microplate reader (BioTek Instrument, Winooski, Vt., USA).
as §1
Gingival keratinocytes were cultured in the apical chamber of Transwell™ inserts as described above. Immediately after adding fluorescein isothiocyanate-conjugated dextran of 4.4 kDa (FD-4; 1 mg/ml in culture medium) to the apical compartment, the formulations under investigation were added in presence of recombinant TNF-α (100 ng/ml). Fluorescence in the basolateral compartment was recorded after 0, 2, 6, 24, and 48 h of incubation using a Synergy 2 microplate reader (BioTek Instruments; Winooski, Vt., USA).

gingival keratinocytes [9] = test: MTT colorimetric cell viability assay; type: cell-based, human
Experimental: The tight junction integrity of the B11 gingival keratinocytes was assessed by determining the transepithelial electrical resistance (TER). Briefly, B11 keratinocytes were seeded onto Costar™ Transwell™ clear polyester membrane inserts (6.5-mm diameter; 0.4-μm pore size; Corning Co., Cambridge, Mass., USA) at 3×10^5 cells per insert. The basolateral and apical compartments were filled with 0.6 mL and 0.1 mL of complete K-SFM, respectively, and the cultures were incubated for 3 days at 37° C. in a 5% CO2 atmosphere. The conditioned medium was then replaced with fresh antibiotic-free K-SFM. Following a further incubation (16 h), the TER values were measured using an Ohm/voltmeter (EVOM2; World Precision Instruments, Sarasota, Fla., USA) at 0, 2, 6, 24, and 48 h. Resistance values were calculated in Ohms (Ω)/cm^2 by multiplying the resistance values by the filter surface area. Results were expressed as a percentage of the basal control values measured at time 0 h (100% values) for each condition. […] The effect of these treatments on cell viability was assessed using an MTT (3-[4,5-[…]-2-yl]-2,5diphenyltetrazolim bromide) colorimetric assay, according to the manufacturer's instructions (Roche Diagnostics, Laval, QC, Canada).

gingival keratinocytes [10] = test: Keratinocyte proliferation (CellTracker Green CMFDA); type: cell-based, human; conditions: TNF-α 100 ng/ml
Experimental: Gingival keratinocytes were seeded into wells (20,000 cells per well) of a 96-well microplate (0.1 ml/well) and incubated overnight at 37° C. in a 5% CO2 atmosphere to allow cell adhesion. The culture medium was then removed, and the cells were treated or not with TNF-α (100 ng/ml) with or without the formulations under investigation for 72 h at 37° C. in a 5% CO2 atmosphere. Cell proliferation was measured using the fluorescent CellTracker™ Green CMFDA (5-chloromethylfluorescein diacetate) Dye according to the manufacturer's instructions (Thermo Fisher Scientific). Untreated control cells were assigned a value of 100%. Briefly, after 24 h of stimulation, the supernatant was removed and the cells were washed with PBS. […] Fluorescent keratinocytes were also visualized using an inverted Olympus FS X100 fluorescent microscope.

N=C(N)NCCC[C@H](N)C(=O)O [Arginine, arginine]
intestinal mucosal barrier functions [1]: improve the intestinal mucosal barrier functions | effect on SLS-induced increase in tissue permeability (TER ratio) ([2]; tissues treated 3x over 3 days, then 0.5% SLS for 2 minutes, FIGS. 1-4): minimal effect

Nc1nc(N)nc(-c2cc(Cl)ccc2Cl)n1 [irsogladine maleate]
protection of gingival keratinocyte barrier against TNF-α-induced damage [3]: reversed the TNF-α-induced disruption of the gingival epithelial barrier

[Zn] [zinc]
epithelial barrier function (transepithelial electrical resistance) [4]: improve epithelial barrier function | protection of intestinal epithelial barrier from Shigella flexneri [5]: allows protection of the intestinal epithelial barrier from damage mediated by the pathogen Shigella flexneri

CC(=O)N[C@@H](CC(C)C)C(=O)N[C@@H](CC(C)C)C(=O)N[C@H](C=O)CCCNC(=N)N [Leupeptin, reference compound]
inhibition of P. gingivalis collagenase activity [6]: inhibited P. gingivalis collagenase activity

theaflavins
protection of gingival keratinocyte barrier against TNF-α-induced damage [3]: prevented epithelial barrier disruption

CCCCCCCCCCCCOS(=O)(=O)[O-].[Na+] [SLS, Sodium Lauryl Sulfate, reference compound]
tissue permeability after SLS treatment ([2]; 0.5% SLS solution for 2 minutes): increase in tissue permeability

TNF-α
decrease of TER by TNF-α ([7]; 6 h): 25.8% | decrease of TER by TNF-α ([7]; 24 h): 49.3% | decrease of TER by TNF-α ([7]; 48 h): 85.1% | increase of FD-4 transport by TNF-α [8]: 50.8% | viability of gingival keratinocytes (MTT) (gingival keratinocytes [9]): no significant loss of cell viability | reduction of cell proliferation by TNF-α (gingival keratinocytes [10]): 30.2%

epigallocatechin-3-gallate
protection of gingival keratinocyte barrier against TNF-α-induced damage [3]: prevented epithelial barrier disruption
